Test results reported in patent US8895761B2, “4-phenylpyrane-3,5-diones, 4-phenylthiopyrane-3,5-diones and 2-phenylcyclohexane-1,3,5-triones as herbicides” (Syngenta Limited, priority 2007, dated 2014).

Key:
Format in all cases: in vivo
Setaria faberi (SETFA) [1] = experiment: Post-emergence herbicidal glasshouse test, Setaria faberi; conditions: rate 250 g/ha, evaluated after 13 days, scale 100 = total damage to plant, 0 = no damage; for pest or weed control at 250 g/ha: Setaria faberi, 312 h
Protocol: (§1) Seeds of a variety of test species were sown in standard soil in pots. After cultivation for one day (pre-emergence) or after 8 days cultivation (post-emergence) under controlled conditions in a glasshouse (at 24/16° C., day/night; 14 hours light; 65% humidity), the plants were sprayed with an aqueous spray solution derived from the formulation of the technical active ingredient in acetone/water (50:50) solution containing 0.5% Tween 20 (polyoxyethelyene sorbitan monolaurate, CAS RN 9005-64-5). The test plants were then grown in a glasshouse under controlled conditions in a glasshouse (at 24/16° C., day/night; 14 hours light; 65% humidity) and watered twice daily. After 13 days for pre and post-emergence, the test was evaluated ([…] to plant; 0=no damage to plant).
(§2) Setaria faberi (SETFA), Lolium perenne (LOLPE), Alopecurus myosuroides (ALOMY), Echinochloa crus-galli (ECHCG) and Avena fatua (AVEFA).

[2] = test system: Echinochloa crus-galli (ECHCG); experiment: Pre-emergence herbicidal glasshouse test, Echinochloa crus-galli; conditions: rate 250 g/ha, evaluated after 13 days, scale 100 = total damage to plant, 0 = no damage; for pest or weed control at 250 g/ha: Echinochloa crus-galli, 312 h
Summary of the method: (§3)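 Plant damage is rated 13 days after treatment, from 0 (none) to total kill. Application is to soil one day post-sowing for pre-emergence, or to 8-day-old plants for post-emergence, using an aqueous spray of compound formulated in 50:50 acetone/water containing 0.5% Tween 20.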

Avena fatua (AVEFA) [3] = experiment: Pre-emergence herbicidal glasshouse test, Avena fatua; conditions: rate 250 g/ha, evaluated after 13 days, scale 100 = total damage to plant, 0 = no damage; for pest or weed control at 250 g/ha: Avena fatua, 312 h
Summary of the method: as §3

[4] = test system: Alopecurus myosuroides (ALOMY); experiment: Pre-emergence herbicidal glasshouse test, Alopecurus myosuroides; conditions: rate 250 g/ha, evaluated after 13 days, scale 100 = total damage to plant, 0 = no damage; for pest or weed control at 250 g/ha: Alopecurus myosuroides, 312 h
Summary of the method: as §3

[5] = test system: Echinochloa crus-galli (ECHCG); experiment: Post-emergence herbicidal glasshouse test, Echinochloa crus-galli; conditions: rate 250 g/ha, evaluated after 13 days, scale 100 = total damage to plant, 0 = no damage; for pest or weed control at 250 g/ha: Echinochloa crus-galli, 312 h
Summary of the method: as §3

Setaria faberi (SETFA) [6] = experiment: Pre-emergence herbicidal glasshouse test, Setaria faberi; conditions: rate 250 g/ha, evaluated after 13 days, scale 100 = total damage to plant, 0 = no damage; for pest or weed control at 250 g/ha: Setaria faberi, 312 h
Protocol: as §1, §2

[7] = test system: Alopecurus myosuroides (ALOMY); experiment: Post-emergence herbicidal glasshouse test, Alopecurus myosuroides; conditions: rate 250 g/ha, evaluated after 13 days, scale 100 = total damage to plant, 0 = no damage; for pest or weed control at 250 g/ha: Alopecurus myosuroides, 312 h
Summary of the method: as §3

Avena fatua (AVEFA) [8] = experiment: Post-emergence herbicidal glasshouse test, Avena fatua; conditions: rate 250 g/ha, evaluated after 13 days, scale 100 = total damage to plant, 0 = no damage; for pest or weed control at 250 g/ha: Avena fatua, 312 h
Summary of the method: as §3

Lolium perenne (LOLPE) [9] = experiment: Post-emergence herbicidal glasshouse test, Lolium perenne; conditions: 312 h, rate 250 g/ha, evaluated after 13 days, scale 100 = total damage to plant, 0 = no damage
Summary of the method: as §3

Lolium perenne (LOLPE) [10] = experiment: Pre-emergence herbicidal glasshouse test, Lolium perenne; conditions: 312 h, rate 250 g/ha, evaluated after 13 days, scale 100 = total damage to plant, 0 = no damage
Summary of the method: as §3

Structure (SMILES)	pest or weed control at 250 g/ha (Setaria faberi (SETFA) [1])	pest or weed control at 250 g/ha [2]	pest or weed control at 250 g/ha (Avena fatua (AVEFA) [3])	pest or weed control at 250 g/ha [4]	pest or weed control at 250 g/ha [5]	pest or weed control at 250 g/ha (Setaria faberi (SETFA) [6])	pest or weed control at 250 g/ha [7]	pest or weed control at 250 g/ha (Avena fatua (AVEFA) [8])	damage to plant ALOMY, pre-emergence activity [4]	damage to plant SETFA, pre-emergence activity (Setaria faberi (SETFA) [6])	damage to plant SETFA, post-emergence activity (Setaria faberi (SETFA) [1])	damage to plant ECHCG, pre-emergence activity [2]	damage to plant AVEFA, pre-emergence activity (Avena fatua (AVEFA) [3])	damage to plant ECHCG, post-emergence activity [5]	damage to plant ALOMY, post-emergence activity [7]	damage to plant AVEFA, post-emergence activity (Avena fatua (AVEFA) [8])	pest or weed control at 250 g/ha (Lolium perenne (LOLPE) [9])	pest or weed control at 250 g/ha (Lolium perenne (LOLPE) [10])
CCc1cc(-c2ccc(Cl)c(Cl)c2F)ccc1C1=C(O)[C@@]2(C)CC[C@H](O2)C1=O (racemic) [Compound A-31]	100%	50%	30%	30%	100%	60%	90%	40%										
CCc1cc(-c2ccc(Cl)cc2)ccc1C1=C(OC(C)=O)[C@@H]2CC[C@@](C)(O2)C1=O (racemic) [Compound D-1]	100%	70%	40%	60%	100%	80%	90%	80%										
CCc1cc(-c2ccc(Cl)cc2Cl)cc(CC)c1C1=C(O)[C@@]2(C)CC[C@H](O2)C1=O (relative stereo) [Compound A-34]	90%				70%		30%	20%										
Cc1cc(-c2ccccc2)cc(C)c1C1=C(O)C(C)(C)OC(C)(C)C1=O [Compound A-1]	80%	70%	40%	30%	100%	90%	50%	0%										
Cc1cc(-c2ccccc2)cc(C)c1C1=C(O)[C@@]2(C)C=C[C@H](O2)C1=O [Compound A-2]	80%	70%	20%		100%		90%	0%	50	60								
Cc1cc(-c2ccccc2)cc(C)c1C1=C(O)[C@@]2(C)C=C[C@H](O2)C1=O [Compound A-3]									0	90	100	70	20	100	70	0		
CCc1cc(-c2ccc(Cl)cc2)ccc1C1=C(O)[C@@]2(C)C=C[C@H](O2)C1=O [Compound A-7]	100%	0%	0%	0%	100%	0%	60%	30%										
CCc1cc(-c2ccc(Cl)c(Cl)c2)ccc1C1=C(OC(C)=O)C(C)(C)OC(C)(C)C1=O [Compound D-2]		90%	20%	30%	90%		70%	40%									80%	100%
CCc1cc(-c2ccc(F)cc2)ccc1C1=C(OC(C)=O)C(C)(C)OC(C)(C)C1=O [Compound D-3]		100%	70%	90%	100%		100%	80%									100%	100%
CCc1cc(-c2ccc(F)cc2)ccc1C1=C(OC(=O)C(C)(C)C)C(C)OC(C)(C)C1=O [Compound D-9]		50%	0%	60%	80%		70%	10%									80%	90%
